How the values were obtained:
Assay type in all cases: binding
Set-up in all cases: KINOMEscan: ABL1(F317L)-phosphorylated / KINOMEscan: ABL1(H396P)-nonphosphorylated / KINOMEscan: ABL1(H396P)-phosphorylated / KINOMEscan: ABL1(M351T)-phosphorylated / KINOMEscan: ABL1(T315I)-phosphorylated / KINOMEscan: ABL1-nonphosphorylated / KINOMEscan: ABL1-phosphorylated / KINOMEscan: ACVR2A / KINOMEscan: ACVR2B / KINOMEscan: ADCK3 / KINOMEscan: ADCK4 / KINOMEscan: AKT1 / KINOMEscan: AKT3 / KINOMEscan: ALK / KINOMEscan: ARK5 / KINOMEscan: AURKA / KINOMEscan: AURKC / KINOMEscan: BIKE / KINOMEscan: BMPR1A / KINOMEscan: BMPR1B / KINOMEscan: BMX / KINOMEscan: BRK / KINOMEscan: BRSK1 / KINOMEscan: BRSK2 / KINOMEscan: CAMK1 / KINOMEscan: CAMK1D / KINOMEscan: CAMK1G / KINOMEscan: CAMK2A / KINOMEscan: CAMK2B / KINOMEscan: AAK1 / KINOMEscan: CAMK2D / KINOMEscan: CAMK2G / KINOMEscan: ABL1(F317I)-nonphosphorylated / KINOMEscan: ABL1(F317I)-phosphorylated / KINOMEscan: ABL1(F317L)-nonphosphorylated: unit: % Ctrl
Conditions in all cases: Compound Concentration 10 µM
panel of 442 kinases [1] = target: T1, panel of 442 kinases (Homo sapiens, UniProt Q92772)
T1 construct: purchased KINOMEscan
T1 sequence (Q92772 1-493): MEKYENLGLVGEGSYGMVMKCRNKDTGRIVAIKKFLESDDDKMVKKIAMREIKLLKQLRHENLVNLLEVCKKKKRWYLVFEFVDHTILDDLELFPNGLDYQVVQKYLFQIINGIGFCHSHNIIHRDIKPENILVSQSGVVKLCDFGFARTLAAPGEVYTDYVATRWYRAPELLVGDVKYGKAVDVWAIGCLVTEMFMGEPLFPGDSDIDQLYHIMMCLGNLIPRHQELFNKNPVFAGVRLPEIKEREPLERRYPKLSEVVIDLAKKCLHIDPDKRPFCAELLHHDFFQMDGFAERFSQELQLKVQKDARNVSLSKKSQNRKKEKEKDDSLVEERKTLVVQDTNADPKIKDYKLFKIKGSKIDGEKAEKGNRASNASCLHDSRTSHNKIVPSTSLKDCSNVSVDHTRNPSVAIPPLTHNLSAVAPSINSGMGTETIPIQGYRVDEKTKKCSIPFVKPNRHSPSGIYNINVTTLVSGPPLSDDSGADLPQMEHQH
Description: (§1) We assessed the selectivity of members of this scaffold using the KINOMEscan methodology across a near comprehensive panel of 442 kinases [[18,27]].

panel of 442 kinases [2] = target: T2, panel of 442 kinases (Homo sapiens, UniProt Q9UM73)
T2 construct: purchased KINOMEscan
Description: as §1

panel of 442 kinases [3] = target: T3, panel of 442 kinases (Homo sapiens, UniProt Q9UBE8)
T3 construct: purchased KINOMEscan
T3 sequence (Q9UBE8 1-527): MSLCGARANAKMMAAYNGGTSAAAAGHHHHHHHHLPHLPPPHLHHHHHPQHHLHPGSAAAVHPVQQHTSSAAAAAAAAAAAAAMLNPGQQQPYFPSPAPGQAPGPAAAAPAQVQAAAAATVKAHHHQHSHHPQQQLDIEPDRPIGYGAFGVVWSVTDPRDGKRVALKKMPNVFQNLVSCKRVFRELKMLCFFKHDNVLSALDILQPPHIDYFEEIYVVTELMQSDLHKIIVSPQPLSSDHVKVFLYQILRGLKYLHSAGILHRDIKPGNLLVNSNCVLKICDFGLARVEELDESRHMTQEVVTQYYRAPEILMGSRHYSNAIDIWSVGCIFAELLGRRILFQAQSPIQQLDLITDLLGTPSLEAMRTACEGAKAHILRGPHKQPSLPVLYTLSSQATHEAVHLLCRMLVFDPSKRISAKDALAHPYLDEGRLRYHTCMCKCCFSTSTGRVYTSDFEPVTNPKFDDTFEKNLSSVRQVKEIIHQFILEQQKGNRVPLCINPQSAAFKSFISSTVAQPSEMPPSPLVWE
Description: as §1

T2 sequence (Q9UM73 19-1620): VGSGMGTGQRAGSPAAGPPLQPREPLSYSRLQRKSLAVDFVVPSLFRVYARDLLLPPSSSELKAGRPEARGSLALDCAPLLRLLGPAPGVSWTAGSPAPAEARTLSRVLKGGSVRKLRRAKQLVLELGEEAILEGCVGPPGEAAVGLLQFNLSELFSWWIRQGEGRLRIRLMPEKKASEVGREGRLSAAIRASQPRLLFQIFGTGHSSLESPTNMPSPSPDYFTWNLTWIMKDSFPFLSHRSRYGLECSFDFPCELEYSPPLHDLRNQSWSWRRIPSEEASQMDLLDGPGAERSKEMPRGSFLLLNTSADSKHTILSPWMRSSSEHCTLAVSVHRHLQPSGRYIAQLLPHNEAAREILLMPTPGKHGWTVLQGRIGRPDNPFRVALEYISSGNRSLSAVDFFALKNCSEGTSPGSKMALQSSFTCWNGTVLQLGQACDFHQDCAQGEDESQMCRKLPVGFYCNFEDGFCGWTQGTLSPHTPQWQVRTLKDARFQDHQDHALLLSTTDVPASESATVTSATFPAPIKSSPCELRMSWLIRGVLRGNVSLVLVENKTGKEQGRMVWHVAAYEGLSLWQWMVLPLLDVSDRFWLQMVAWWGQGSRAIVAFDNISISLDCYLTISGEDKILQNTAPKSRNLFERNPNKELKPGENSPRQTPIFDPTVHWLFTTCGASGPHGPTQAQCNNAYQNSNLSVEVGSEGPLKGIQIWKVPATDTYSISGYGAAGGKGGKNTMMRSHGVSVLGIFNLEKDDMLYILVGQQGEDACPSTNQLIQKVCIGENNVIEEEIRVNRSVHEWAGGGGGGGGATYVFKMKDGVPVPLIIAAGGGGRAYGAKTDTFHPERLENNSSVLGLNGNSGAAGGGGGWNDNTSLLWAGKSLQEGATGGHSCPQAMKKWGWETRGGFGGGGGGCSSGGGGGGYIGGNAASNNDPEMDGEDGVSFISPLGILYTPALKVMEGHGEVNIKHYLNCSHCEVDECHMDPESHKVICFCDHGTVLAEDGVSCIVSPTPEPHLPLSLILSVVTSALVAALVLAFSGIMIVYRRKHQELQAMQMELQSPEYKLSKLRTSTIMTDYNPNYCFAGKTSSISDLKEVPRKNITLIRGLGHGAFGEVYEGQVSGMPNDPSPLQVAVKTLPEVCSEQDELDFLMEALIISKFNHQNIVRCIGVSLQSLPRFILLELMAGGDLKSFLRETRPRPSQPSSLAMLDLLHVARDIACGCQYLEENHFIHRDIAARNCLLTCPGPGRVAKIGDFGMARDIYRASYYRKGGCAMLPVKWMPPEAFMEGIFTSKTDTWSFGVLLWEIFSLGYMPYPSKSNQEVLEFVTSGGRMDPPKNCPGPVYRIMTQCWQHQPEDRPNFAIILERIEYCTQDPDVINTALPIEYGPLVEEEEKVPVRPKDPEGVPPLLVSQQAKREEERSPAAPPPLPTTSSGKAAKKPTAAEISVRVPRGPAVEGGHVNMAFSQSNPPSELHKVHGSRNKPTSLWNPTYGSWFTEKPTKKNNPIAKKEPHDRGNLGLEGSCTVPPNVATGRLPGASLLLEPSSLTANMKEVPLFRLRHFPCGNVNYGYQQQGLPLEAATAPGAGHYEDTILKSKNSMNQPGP

| SMILES | KINOMEscan: CDKL2 (panel of 442 kinases [1]) | KINOMEscan: ALK (panel of 442 kinases [2]) | KINOMEscan: NLK (panel of 442 kinases [3]) |
| --- | --- | --- | --- |
| COc1cc(C(=O)N2CCC(N3CCN(C)CC3)CC2)ccc1Nc1ncc2c(n1)N(C)c1ccccc1C(=O)N2C [15 (LRRK2-IN-1)] | 100 | 13 | 50 |
| CCOc1cc(C(=O)N2CCC(N3CCN(C)CC3)CC2)ccc1Nc1ncc2c(n1)N(C1CCCC1)c1ccccc1C(=O)N2C [Compound 26] | 99 | 21 | 78 |
| COc1cc(C(=O)N2CCC(N3CCN(C)CC3)CC2)ccc1Nc1ncc2c(n1)N1CCc3cccc(c31)C(=O)N2C [Compound 24] | – | 31 | 68 |
| COc1cc(C(=O)N2CCC(N3CCN(C)CC3)CC2)ccc1Nc1ncc2c(n1)N(C1CCCC1)c1ccccc1C(=O)N2C [Compound 25, 11-cyclopentyl-2-((2-methoxy-4-(4-(4-methylpiperazin-1-yl)piperidine-1-carbonyl)phenyl)amino)-5-methyl-5H-benzo[e]pyrimido[5,4-b][1,4]diazepin-6(11H)-one] | 95 | 15 | 63 |
